Experimental data taken from ChEMBL document CHEMBL1811896, “Isoflavone dimers and other bioactive constituents from the figs of Ficus mucuso” (J Nat Prod, 2011).
pIC50: −log10 of the molar value. Active and inactive are the calls of the source. No cut-off for these calls is given here.

Legend:
Escherichia coli [1] = assay: Inhibition of Escherichia coli beta-glucuronidase assessed as inhibition of p-nitrophenyl-beta-D-glucuronide hydrolysis at 0.08 mM preincubated for 30 mins measured 30 mins after substrate addition by spectrophotometry
[2] = biological target: T1, Enoyl-acyl-carrier protein reductase (Plasmodium falciparum) (UniProt Q965D5); assay: Inhibition of Plasmodium falciparum Enoyl-ACP reductase using crotonyl-CoA as substrate at 0.25 mM peincubated for 5 mins measured after 10 mins of substrate addition by UV-vis spectrophotometry
T1 sequence (whole entry): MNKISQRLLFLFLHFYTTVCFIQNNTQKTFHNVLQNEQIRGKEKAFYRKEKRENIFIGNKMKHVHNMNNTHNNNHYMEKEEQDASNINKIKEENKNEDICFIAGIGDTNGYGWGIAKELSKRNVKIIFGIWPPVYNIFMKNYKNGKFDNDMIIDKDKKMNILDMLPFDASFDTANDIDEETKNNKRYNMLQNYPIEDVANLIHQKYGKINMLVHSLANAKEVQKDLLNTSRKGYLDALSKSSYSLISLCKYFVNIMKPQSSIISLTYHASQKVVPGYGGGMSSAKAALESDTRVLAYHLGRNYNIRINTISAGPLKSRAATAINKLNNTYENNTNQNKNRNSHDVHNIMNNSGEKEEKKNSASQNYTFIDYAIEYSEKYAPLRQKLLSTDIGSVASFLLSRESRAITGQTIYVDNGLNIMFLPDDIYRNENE

[3] = Inhibition of Escherichia coli beta-glucuronidase assessed as inhibition of p-nitrophenyl-beta-D-glucuronide hydrolysis preincubated for 30 mins measured 30 mins after substrate addition by spectrophotometry
Escherichia coli [4] = assay: Inhibition of Escherichia coli beta-glucuronidase assessed as inhibition of p-nitrophenyl-beta-D-glucuronide hydrolysis at 0.20 mM preincubated for 30 mins measured 30 mins after substrate addition by spectrophotometry
[5] = biological target: T2, Enoyl-acyl-carrier protein reductase (Plasmodium falciparum, UniProt Q965D5); assay: (§1) Inhibition of Plasmodium falciparum Enoyl-ACP reductase using crotonyl-CoA as substrate peincubated for 5 mins measured after 10 mins of substrate addition by UV-vis spectrophotometry
T2 sequence (Q965D5 whole entry): T1 sequence (whole entry)

[6] = biological target: T1, Enoyl-acyl-carrier protein reductase (Plasmodium falciparum); conditions: 0.1 mM
Description: Inhibition of Plasmodium falciparum Enoyl-ACP reductase using crotonyl-CoA as substrate at 0.1 mM peincubated for 5 mins measured after 10 mins of substrate addition by UV-vis spectrophotometry

Escherichia coli [7] = assay: Inhibition of Escherichia coli beta-glucuronidase assessed as inhibition of p-nitrophenyl-beta-D-glucuronide hydrolysis at 0.10 mM preincubated for 30 mins measured 30 mins after substrate addition by spectrophotometry
[8] = biological target: T1, Enoyl-acyl-carrier protein reductase (Plasmodium falciparum); assay: as §1
Escherichia coli [9] = assay: Inhibition of Escherichia coli beta-glucuronidase assessed as inhibition of p-nitrophenyl-beta-D-glucuronide hydrolysis at 0.05 mM preincubated for 30 mins measured 30 mins after substrate addition by spectrophotometry
[10] = biological target: T1, Enoyl-acyl-carrier protein reductase (Plasmodium falciparum); assay: Inhibition of Plasmodium falciparum Enoyl-ACP reductase using crotonyl-CoA as substrate at 0.025 mM peincubated for 5 mins measured after 10 mins of substrate addition by UV-vis spectrophotometry
[11] = biological target: T1, Enoyl-acyl-carrier protein reductase (Plasmodium falciparum); conditions: 0.05 mM
Description: Inhibition of Plasmodium falciparum Enoyl-ACP reductase using crotonyl-CoA as substrate at 0.05 mM peincubated for 5 mins measured after 10 mins of substrate addition by UV-vis spectrophotometry

[12] = biological target: T1, Enoyl-acyl-carrier protein reductase (Plasmodium falciparum); assay: Inhibition of Plasmodium falciparum Enoyl-ACP reductase using crotonyl-CoA as substrate at 0.15 mM peincubated for 5 mins measured after 10 mins of substrate addition by UV-vis spectrophotometry
Escherichia coli [13] = assay: Ratio of D-saccharic acid-1,4-lactone IC50 to compound IC50 for Escherichia coli beta-glucuronidase

In the case of `C[C@@H]1CC[C@]2(C(=O)O)CC[C@]3(C)C(=CC[C@@H]4[C@@]5(C)C[C@@H](O)[C@H](OC(=O)/C=C/c6ccc(O)cc6)C(C)(C)[C@@H]5CC[C@]43C)[C@@H]2[C@]1(C)O`, the inhibition (Escherichia coli [1]) was 15.9% and the inhibition [2] was 3.9%.
`COc1c(-c2ccc(O)c(O)c2)oc2cc(O)cc(O)c2c1=O` [3-O-METHYLQUERCETIN] showed a pIC50 [3] of 4.35, an inhibition (Escherichia coli [4]) of 85.2% and a pIC50 [5] of 4.45. The inhibition [6] was 88.2%.
In the case of `CC(C)=C[C@@H]1C[C@](C)(/C=C/c2cc(-c3coc4cc(O)cc(O)c4c3=O)ccc2O)Oc2ccc(-c3coc4cc(O)cc(O)c4c3=O)cc21` [MUCUSISOFLAVONE B], the pIC50 [3] was 4.86, the inhibition (Escherichia coli [7]) was 70.1% and the inhibition [8] was “inactive”. The inhibition [2] was “inactive”.
Work on `O=C(O)[C@@H](O)[C@H]1OC(=O)[C@H](O)[C@H]1O` yielded an inhibition (Escherichia coli [9]) of 99.5%.
`CC(C)=CCc1cc(-c2coc3c(C(C=C(C)C)c4cc(-c5coc6cc(O)cc(O)c6c5=O)ccc4O)c(O)cc(O)c3c2=O)ccc1O` (centres undefined) [MUCUSISOFLAVONE C] showed a pIC50 [3] of 5.51, an inhibition (Escherichia coli [7]) of 94% and a pIC50 [5] of 5.11. The inhibition [10] was 89.1%.
Work on `Oc1cc(Cl)ccc1Oc1ccc(Cl)cc1Cl` [TRICLOSAN] yielded a pIC50 [5] of 6.70 and an inhibition [11] of 99.5%.
`O=c1cc(-c2ccc(O)cc2)oc2cc(O)cc(O)c12` showed an inhibition (Escherichia coli [4]) of 15.7%.
For `COc1ccc(C(=O)O)cc1` [p-ANISIC ACID], the pIC50 [3] was 3.91, the inhibition (Escherichia coli [4]) was 66.2% and the inhibition [8] was “inactive”. The inhibition [2] was “inactive”.
Work on `CC(C)=CCc1c(O)cc2occ(-c3ccc(O)cc3)c(=O)c2c1O` [WIGHTEONE] yielded a pIC50 [3] of 5.39, an inhibition (Escherichia coli [4]) of 97.3% and an inhibition [12] of 42.6%.
`O=c1c(O)c(-c2ccc(O)cc2)oc2cc(O)cc(O)c12` [KAEMPFEROL] gave a pIC50 [3] of 4.56, an inhibition (Escherichia coli [4]) of 87.5% and an inhibition [2] of 6.5%.
`CC1(C)C=Cc2c(cc3occ(-c4ccc(O)cc4)c(=O)c3c2O)O1` showed an inhibition (Escherichia coli [1]) of 17.6% and an inhibition [2] of 12.6%.
With `CCCCC/C=C/CCCCCCC[C@@H](O)[C@@H](O)[C@H](CO)NC(=O)[C@H](O)CCCCCCCCCCCCCCCCCCCCCC` the inhibition (Escherichia coli [1]) was 1.7%, the inhibition [8] was “inactive” and the inhibition [2] was “inactive”.
With `CC1=C[C@H](c2cc(-c3coc4cc(O)cc(O)c4c3=O)ccc2O)[C@](C)(/C=C/c2cc(-c3coc4cc(O)cc(O)c4c3=O)ccc2O)CC1` [MUCUSISOFLAVONE A] the pIC50 [3] was 6.17, the inhibition (Escherichia coli [4]) was 98.7% and the inhibition [8] was “inactive”. For the same compound, the inhibition [2] was “inactive” and the Ratio IC50 (Escherichia coli [13]) was 71.
`O=C(O)c1ccc(O)c(O)c1` gave an inhibition (Escherichia coli [4]) of 23.5%.
